In patent US9662327B2 (AGIOS PHARMACEUTICALS, INC, priority 2011, dated 2017):

Target: IDH1 R132H (Homo sapiens (Human), UniProt O75874, R132H)
Assay: Assays for IDH1 R132H Inhibitors (NADPH/aKG, resazurin detection)
Type: biochemical
Conditions: IDH1 R132H enzyme, Table 2; read-out: IDHR132H Activity
Procedure, shortened: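 Substrate mix held 8 uM NADPH plus 2 mM aKG; buffer was 20 mM Tris pH 7.5 with 150 mM NaCl, 10 mM MgCl2, 0.03% BSA. After 50 min room-temperature reaction, NADPH remaining was detected with 30 μM resazurin mix over 5 min.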

Sequence of IDH1 R132H (O75874 whole entry R132H): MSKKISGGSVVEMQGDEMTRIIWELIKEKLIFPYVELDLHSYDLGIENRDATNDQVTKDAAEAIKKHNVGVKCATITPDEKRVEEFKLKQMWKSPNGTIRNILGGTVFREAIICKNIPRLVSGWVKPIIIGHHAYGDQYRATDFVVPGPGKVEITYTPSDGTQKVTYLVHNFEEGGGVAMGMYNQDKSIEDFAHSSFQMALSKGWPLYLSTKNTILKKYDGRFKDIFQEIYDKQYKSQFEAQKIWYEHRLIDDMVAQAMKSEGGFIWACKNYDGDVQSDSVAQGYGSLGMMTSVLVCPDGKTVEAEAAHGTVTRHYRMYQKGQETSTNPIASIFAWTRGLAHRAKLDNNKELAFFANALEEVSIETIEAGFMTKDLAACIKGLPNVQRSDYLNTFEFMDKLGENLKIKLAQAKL

Question: `COCC(=O)N1CCN(c2nc(C3CCCCC3)c3c(c2C#N)CCOC3)C[C@H]1C` [Compound 341] was tested. Which IC50 did it give?
Answer: 1 to 10 µM

Question: For `COC(=O)CN1CCN(c2nc(C3CCCCC3)c3c(c2C#N)CCOC3)C[C@H]1C` [Compound 342, (R)-methyl 2-(4-(5-cyano-8-cyclohexyl-3,4-dihydro-1H-pyrano[3,4-c]pyridin-6-yl)-2-methylpiperazin-1-yl)acetate], which IC50 is on record?
Answer: 1 to 10 µM

Question: For `C[C@@H]1CN(c2nc(C3CCCCC3)c3c(c2C#N)CCOC3)CCN1C(=O)OCc1ccccc1` [Compound 343, (R)-benzyl 4-(5-cyano-8-cyclohexyl-3,4-dihydro-1H-pyrano[3,4-c]pyridin-6-yl)-2-methylpiperazine-1-carboxylate], which IC50 is on record?
Answer: 1 to 10 µM

Question: `CNC(=O)N1CCN(c2nc(C3CC3)c3c(c2C#N)CC(C)(C)OC3)C[C@H]1C(C)C` [Compound 344] was tested. Which IC50 did it give?
Answer: < 0.5 µM

Question: With `COC(=O)N1CCN(c2nc(C3CC3)c3c(c2C#N)CC(C)(C)OC3)C[C@H]1C(C)C` [Compound 346, (R)-methyl 4-(5-cyano-8-cyclopropyl-3,3-dimethyl-3,4-dihydro-1H-pyrano[3,4-c]pyridin-6-yl)-2-isopropylpiperazine-1-carboxylate] as the compound, how does the IC50 read?
Answer: < 0.5 µM

Question: `COCC(=O)N1CCN(c2nc(C3CC3)c3c(c2C#N)CC(C)(C)OC3)C[C@H]1C(C)C` [Compound 347, (R)-8-cyclopropyl-6-(3-isopropyl-4-(2-methoxyacetyl)piperazin-1-yl)-3,3-dimethyl-3,4-dihydro-1H-pyrano[3,4-c]pyridine-5-carbonitrile] was tested. Which IC50 did it give?
Answer: < 0.5 µM

Question: How did the IC50 turn out when `CC(C)[C@@H]1CN(c2nc(C3CC3)c3c(c2C#N)CC(C)(C)OC3)CCN1C(=O)COCCO` [Compound 348] was run?
Answer: 1 to 10 µM

Question: Which IC50 does the source give for `CCCNC(=O)N1CCN(c2nc(C3CC3)c3c(c2C#N)CC(C)(C)OC3)C[C@H]1C(C)C` [Compound 350, (R)-4-(5-cyano-8-cyclopropyl-3,3-dimethyl-3,4-dihydro-1H-pyrano[3,4-c]pyridin-6-yl)-2-isopropyl-N-propylpiperazine-1-carboxamide] here?
Answer: 1 to 10 µM

Question: `CC(C)[C@@H]1CN(c2nc(C3CC3)c3c(c2C#N)CC(C)(C)OC3)CCN1C(=O)N(C)C` [Compound 351] was tested. Which IC50 did it give?
Answer: 1 to 10 µM

Question: Which IC50 does the source give for `CC(=O)N1CCN(c2nc(C3CC3)c3c(c2C#N)CC(C)(C)OC3)C[C@H]1C(C)C` [Compound 352] here?
Answer: 0.5 to 1 µM

Question: How did the IC50 turn out when `COCCNC(=O)N1CCN(c2nc(C3CC3)c3c(c2C#N)CC(C)(C)OC3)C[C@H]1C(C)C` [Compound 353] was run?
Answer: 0.5 to 1 µM

Question: `CCC(=O)N1CCN(c2nc(C3CC3)c3c(c2C#N)CC(C)(C)OC3)C[C@H]1C(C)C` [Compound 354, (R)-8-cyclopropyl-6-(3-isopropyl-4-propionylpiperazin-1-yl)-3,3-dimethyl-3,4-dihydro-1H-pyrano[3,4-c]pyridine-5-carbonitrile] was tested. Which IC50 did it give?
Answer: < 0.5 µM

Question: Which IC50 does the source give for `COCCC(=O)N1[C@H](C)CN(c2nc(C3CC3)c3c(c2C#N)CC(C)(C)OC3)C[C@@H]1C` [Compound 356] here?
Answer: 1 to 10 µM

Question: How did the IC50 turn out when `CNC(=O)N1CCN(c2nc(C3CCCCC3)c3c(c2C#N)CCOC3)C[C@H]1C` [Compound 357, (R)-4-(5-cyano-8-cyclohexyl-3,4-dihydro-1H-pyrano[3,4-c]pyridin-6-yl)-N,2-dimethylpiperazine-1-carboxamide] was run?
Answer: 1 to 10 µM

Question: Which IC50 does the source give for `CCOC(=O)N1CCN(c2nc(C3CCCCC3)c3c(c2C#N)CCOC3)C[C@H]1C` [Compound 358, (R)-ethyl 4-(5-cyano-8-cyclohexyl-3,4-dihydro-1H-pyrano[3,4-c]pyridin-6-yl)-2-methylpiperazine-1-carboxylate] here?
Answer: 1 to 10 µM

Question: With `CCCOC(=O)N1CCN(c2nc(C3CCCCC3)c3c(c2C#N)CCOC3)C[C@H]1C` [Compound 359, (R)-propyl 4-(5-cyano-8-cyclohexyl-3,4-dihydro-1H-pyrano[3,4-c]pyridin-6-yl)-2-methylpiperazine-1-carboxylate] as the compound, how does the IC50 read?
Answer: 1 to 10 µM

Question: With `C[C@@H]1CN(c2nc(C3CCCCC3)c3c(c2C#N)CCOC3)CCN1C(=O)NC1CC1` [Compound 360, (R)-4-(5-cyano-8-cyclohexyl-3,4-dihydro-1H-pyrano[3,4-c]pyridin-6-yl)-N-cyclopropyl-2-methylpiperazine-1-carboxamide] as the compound, how does the IC50 read?
Answer: 1 to 10 µM

Question: With `C#CCNC(=O)N1CCN(c2nc(C3CCCCC3)c3c(c2C#N)CCOC3)C[C@H]1C` [Compound 361, (R)-4-(5-cyano-8-cyclohexyl-3,4-dihydro-1H-pyrano[3,4-c]pyridin-6-yl)-2-methyl-N-(prop-2-ynyl)piperazine-1-carboxamide] as the compound, how does the IC50 read?
Answer: 1 to 10 µM

Question: `CC(=O)N1CCN(c2nc(C3CCCCC3)c3c(c2C#N)CCOC3)C[C@H]1C` [Compound 362, (R)-6-(4-acetyl-3-methylpiperazin-1-yl)-8-cyclohexyl-3,4-dihydro-1H-pyrano[3,4-c]pyridine-5-carbonitrile] was tested. Which IC50 did it give?
Answer: 1 to 10 µM

Question: `CCC(=O)N1CCN(c2nc(C3CCCCC3)c3c(c2C#N)CCOC3)C[C@H]1C` [Compound 363, (R)-8-cyclohexyl-6-(3-methyl-4-propionylpiperazin-1-yl)-3,4-dihydro-1H-pyrano[3,4-c]pyridine-5-carbonitrile] was tested. Which IC50 did it give?
Answer: 1 to 10 µM

Question: How did the IC50 turn out when `CCCOC(=O)N1CCN(c2nc(C(C)C)c3c(c2C#N)CC(C)(C)OC3)CC1C(=O)OCC` (stereo not shown) [Compound 364, 2-ethyl 1-propyl 4-(5-cyano-8-isopropyl-3,3-dimethyl-3,4-dihydro-1H-pyrano[3,4-c]pyridin-6-yl)piperazine-1,2-dicarboxylate] was run?
Answer: 1 to 10 µM

Question: `CC(C)[C@@H]1CN(c2nc(C3CC3)c3c(c2C#N)CC(C)(C)OC3)CCN1C(=O)NCC1CC1` [Compound 365] was tested. Which IC50 did it give?
Answer: 1 to 10 µM

Question: Which IC50 does the source give for `CCOC(=O)N1CCN(c2nc(C3CC3)c3c(c2C#N)CC(C)(C)OC3)C[C@H]1C(C)C` [Compound 367] here?
Answer: 1 to 10 µM

Question: For `CC(C)[C@@H]1CN(c2nc(C3CC3)c3c(c2C#N)CC(C)(C)OC3)CCN1C(=O)OCCO` [Compound 368, (R)-2-hydroxyethyl 4-(5-cyano-8-cyclopropyl-3,3-dimethyl-3,4-dihydro-1H-pyrano[3,4-c]pyridin-6-yl)-2-isopropylpiperazine-1-carboxylate], which IC50 is on record?
Answer: 0.5 to 1 µM

Question: With `COCCN1CCN(c2nc(C3CC3)c3c(c2C#N)CC(C)(C)OC3)C[C@H]1C(C)C` [Compound 369, (R)-8-cyclopropyl-6-(3-isopropyl-4-(2-methoxyethyl)piperazin-1-yl)-3,3-dimethyl-3,4-dihydro-1H-pyrano[3,4-c]pyridine-5-carbonitrile] as the compound, how does the IC50 read?
Answer: 1 to 10 µM

Question: For `CC(C)[C@@H]1CN(c2nc(C3CC3)c3c(c2C#N)CC(C)(C)OC3)CCN1C(=O)OCC1CC1` [Compound 370, (R)-cyclopropylmethyl 4-(5-cyano-8-cyclopropyl-3,3-dimethyl-3,4-dihydro-1H-pyrano[3,4-c]pyridine-6-yl)-2-isopropylpiperazine-1-carboxylate], which IC50 is on record?
Answer: 1 to 10 µM

Question: How did the IC50 turn out when `CC(C)[C@@H]1CN(c2nc(C3CC3)c3c(c2C#N)CC(C)(C)OC3)CCN1C(=O)CNC1CC1` [Compound 372, (R)-8-cyclopropyl-6-(4-(2-(cyclopropylamino)acetyl)-3-isopropylpiperazin-1-yl)-3,3-dimethyl-3,4-dihydro-1H-pyrano[3,4-c]pyridine-5-carbonitrile] was run?
Answer: 1 to 10 µM

Question: Which IC50 does the source give for `C#CCNCC(=O)N1CCN(c2nc(C3CC3)c3c(c2C#N)CC(C)(C)OC3)C[C@H]1C(C)C` [Compound 373, (R)-8-cyclopropyl-6-(3-isopropyl-4-(2-(prop-2-ynylamino)acetyl)piperazin-1-yl)-3,3-dimethyl-3,4-dihydro-1H-pyrano[3,4-c]pyridine-5-carbonitrile] here?
Answer: 1 to 10 µM

Question: How did the IC50 turn out when `CC(C)[C@@H]1CN(c2nc(C3CC3)c3c(c2C#N)CC(C)(C)OC3)CCN1C(=O)Cn1ccnc1` [Compound 374, (R)-6-(4-(2-(1H-imidazol-1-yl)acetyl)-3-isopropylpiperazin-1-yl)-8-cyclopropyl-3,3-dimethyl-3,4-dihydro-1H-pyrano[3,4-c]pyridine-5-carbonitrile] was run?
Answer: 1 to 10 µM

Question: `C[C@@H]1CN(c2nc(C3CCCCC3)c3c(c2C#N)CCOC3)CCN1C(=O)C1CC1` [Compound 375, (R)-8-cyclohexyl-6-(4-(cyclopropanecarbonyl)-3-methylpiperazin-1-yl)-3,4-dihydro-1H-pyrano[3,4-c]pyridine-5-carbonitrile] was tested. Which IC50 did it give?
Answer: 1 to 10 µM

Question: With `CC(C)[C@@H]1CN(c2nc(C3CC3)c3c(c2C#N)CC(C)(C)OC3)CCN1C(=O)C1CC1` [Compound 376, (R)-6-(4-(cyclopropanecarbonyl)-3-isopropylpiperazin-1-yl)-8-cyclopropyl-3,3-dimethyl-3,4-dihydro-1H-pyrano[3,4-c]pyridine-5-carbonitrile] as the compound, how does the IC50 read?
Answer: < 0.5 µM

Question: How did the IC50 turn out when `CCCNC(=O)N1CCN(c2nc(C3CCCCC3)c3c(c2C#N)CCOC3)C[C@H]1C` [Compound 378, (R)-4-(5-cyano-8-cyclohexyl-3,4-dihydro-1H-pyrano[3,4-c]pyridin-6-yl)-2-methyl-N-propylpiperazine-1-carboxamide] was run?
Answer: 1 to 10 µM

Question: How did the IC50 turn out when `CCCC(=O)N1CCN(c2nc(C3CCCCC3)c3c(c2C#N)CCOC3)C[C@H]1C` [Compound 379, (R)-6-(4-butyryl-3-methylpiperazin-1-yl)-8-cyclohexyl-3,4-dihydro-1H-pyrano[3,4-c]pyridine-5-carbonitrile] was run?
Answer: 1 to 10 µM

Question: With `Cc1nccn1CC(=O)N1CCN(c2nc(C3CC3)c3c(c2C#N)CC(C)(C)OC3)C[C@H]1C(C)C` [Compound 380, (R)-8-cyclopropyl-6-(3-isopropyl-4-(2-(2-methyl-1H-imidazol-1-yl)acetyl)piperazin-1-yl)-3,3-dimethyl-3,4-dihydro-1H-pyrano[3,4-c]pyridine-5-carbonitrile] as the compound, how does the IC50 read?
Answer: 1 to 10 µM

Question: Which IC50 does the source give for `CCCOCC(=O)N1CCN(c2nc(C3CC3)c3c(c2C#N)CC(C)(C)OC3)C[C@H]1C(C)C` [Compound 381] here?
Answer: 0.5 to 1 µM

Question: Which IC50 does the source give for `CC(C)[C@@H]1CN(c2nc(C3CC3)c3c(c2C#N)CC(C)(C)OC3)CCN1C(=O)CC1CC1` [Compound 382, (R)-8-cyclopropyl-6-(4-(2-cyclopropylacetyl)-3-isopropylpiperazin-1-yl)-3,3-dimethyl-3,4-dihydro-1H-pyrano[3,4-c]pyridine-5-carbonitrile] here?
Answer: < 0.5 µM

Question: Which IC50 does the source give for `CCCC(=O)N1CCN(c2nc(C3CC3)c3c(c2C#N)CC(C)(C)OC3)C[C@H]1C(C)C` [Compound 383] here?
Answer: < 0.5 µM
